Assay results as given in patent US9695219B2, “Polypeptide having antibacterial activity and angiogenesis-inducing activity and wound-healing drug containing said polypeptide” (priority 2009, dated 2017).
Where a SMILES comes first, the peptide text is derived from it. [ ]: non-standard residue; d: D form.

Tests used:
[1] = system: Normal human dermal fibroblasts (NHDFs); experiment: Collagen production test; type: cell-based; details: 5-day culture
Method: Normal human dermal fibroblasts (NHDFs) were plated in a 48-well plate. As a medium, Medium 106 containing 1% FBS was used. After culturing in an incubator at 37° C. under 5% CO2 for about 3 hours, the peptide or FGFb (Positive Control), which had been diluted with the medium to each concentration, was added, and the culturing was further continued. The medium was replaced with a medium containing the same additive on Day 3, and the culturing was continued for another 2 days.
The amount of produced collagen was measured by using Semi-Quantitative Collagen Assay Kit.
After the 5-day culture, the medium was removed by aspiration, and the cells were washed with cold PBS(−). Cold methanol/ethanol was added thereto and the plate was left to stand for 10 minutes at room temperature to fix the cells. The cells were washed twice with cold PBS(−). Then, a staining solution (Dye Solution) was added to each well, and the plate was left to stand at room temperature for 30 minutes. The staining solution was removed, and the cells were washed 4-5 times with deionized water. An extraction solution (Dye Extraction Solution) was added to each well to extract the dye, and the absorbances of the extract at 540 nm and 605 nm were measured.
The amounts of collagen and noncollagen proteins were calculated according to the following equation. […]

[2] = system: burn-ulcer model, hairless rats; experiment: Effect to heal burn ulcers; type: in vivo, rat; details: 0.2 μg/μL (20 μg/wound), once a day
Method: A burn model was produced using 7-week old male hairless rats (HWY/slc), and the healing effect of the polypeptides of the present invention was examined. The burn-ulcer model was produced by contacting a red hot iron (at 100° C., φ12 mm) to the back of each rat for 5 seconds under anesthesia with ether to induce a burn. […] On the day after inducing the burn, the necrotic skin was surgically removed to obtain a burn model. After producing the burn model, the test substance was administered onto the wound site, and a covering was used to cover over that (Day 0). Only a covering was used in the Control. Thereafter, the test substance was administered once a day on every measurement day. And, on Day 6 and Day 8, the change of the area of the wound was measured by calculating measured values from a digital caliper and digital images, and the area where the burns had still not healed was measured to calculate the ratio of it relative to the area where the burns were created (Day 0). The concentration of the test substances were individually 0.2 μg/μL (20 μg/wound).

Salmonella typhimurium = experiment: microbe, parasite or virus in culture; type: cell-based; details: 37° C. for 20 hours; tested twice, first/second value where not matched
Outline: (§1)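 Following CLSI broth microdilution guidance, peptides were serially diluted and challenged with about 10^5 CFU/ml in Mueller-Hinton broth. The MIC was defined as the lowest concentration without growth at 20 h, 37° C.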

Clostridium ramosum = experiment: microbe, parasite or virus in culture; type: cell-based; details: 37° C. for 20 hours; tested twice, first/second value where not matched
Outline: as §1

Bacteroides fragilis = experiment: microbe, parasite or virus in culture; type: cell-based; details: 37° C. for 20 hours; tested twice, first/second value where not matched
Outline: as §1

[3] = Stability in human serum (HPLC); type: in vitro ADME; details: 37° C.
Method: The stability of the polypeptides in serum was evaluated. In human serum (purchased from KAC Co., Ltd.), or in rat serum obtained by collecting blood from a rat, then leaving the collected blood to stand at room temperature followed by centrifugation, each of the peptides was dissolved so as to attain a final concentration of 500 μg/mL, and the obtained solutions were left to stand at 37° C. After leaving to stand for 3 min or 10 min, these solutions were subjected to HPLC chromatogram analysis to detect peaks of the decomposition products, and calculate the ratio of the concentration of the peptides which remained in the solutions relative to the starting concentration. In addition, the half-lives of the peptides in serum were also calculated.

MSSA (clinical strain 1) = experiment: microbe, parasite or virus in culture; type: cell-based, Staphylococcus aureus; details: 37° C. for 20 hours; tested twice, first/second value where not matched
Method: Further, with respect to not only the above-described strains but also various other strains, the “minimum inhibitory concentration (MIC)” was measured as follows. MIC is the lowest concentration of an agent that may inhibit the growth of a bacterium. MIC is used as a parameter for the efficacy of an antibacterial agent, for the strength of bacterial sensitivity, or the like. The bacteria can grow (proliferate) when the concentration is not higher than MIC, and cannot grow when the concentration is higher than MIC. Its measurement is carried out according to a method defined as a standard method by Japanese Society of Chemotherapy or CLINICAL AND LABORATORY […] (CLSI), but, in this Example, its measurement was carried out by a broth microdilution method in accordance with “M100-S17/M7-A7” (Performance Standards for Antimicrobial Susceptibility Testing; Seventeenth Informational Supplement, Vol. 27 No. 1) published by CLSI on January, 2007. That is, sensitivity test of agents was carried out using a microtiter plate or test tubes.
The bacteria were cultured in liquid media for 4 to 6 hours, and thereafter absorbances at A600 were measured. Bacterial suspensions were diluted with Mueller-Hinton broth (MHB) according to McFarland #0.5. Each strain was added so as to attain about 10^5 CFU/ml (final concentration). Each peptide was prepared to an optional concentration, and the solutions were serially diluted from the concentration. The polypeptide at each concentration stage was added to a microplate or test tubes, and the bacterial suspension was added thereto. Chloramphenicol, amphotericin B, ciprofloxacin, meropenem (MEPM), ciprofloxacin (CPFX), tobramycin (TOB) and oxacillin (OX) were used as positive controls. The plate was incubated at 37° C. for 20 hours, and the lowest concentration where bacterial growth was inhibited was regarded as the minimum inhibitory concentration.

rat cut-wound model = experiment: Effect to heal cut wounds, wound closing tension; type: in vivo; details: 500 ng, 5 and 50 μg dropwise once a day, measured on Day 6
Method: Next, using rat cut-wound model, the effect of the polypeptides, SR-07 and SR-08, to heal cut wounds in vivo was evaluated. As described in Tetsuaki Yamaura et al. (Oyo Yakuri (Pharmacometrics) 22, 565-579 (1981)), the rat cut-wound model was produced and the wound closing tension was measured.
That is, a cut wound of 30 to 36 mm was made on the back of Crl:CD (SD) rats (male, 7-week old, obtained from Charles River Laboratories Japan, Inc.) using a safety razor, and sutured at 3 points equally spaced. The day when this surgical treatment was applied was regarded as […] (Day 0). Onto the suture site, 50 μL of each of the peptides which were test substances and were respectively prepared to the concentration of 10, 100 and 1000 μg/mL was added dropwise (the added amounts were 500 ng and 5 and 50 μg, respectively). Additions of 50 μL physiological saline were regarded as negative controls (Saline). Each peptide was added dropwise once a day till the day when the measurement of the wound closing tension was carried out. The sutures were removed on Day 3, and the wound closing tension was measured on Day 6.

SMILES: CC[C@H](C)[C@H](NC(=O)[C@H](CC(C)C)NC(=O)[C@H](CCCCN)NC(=O)[C@@H](N)CC(C)C)C(=O)N[C@@H](Cc1ccccc1)C(=O)N[C@@H](CC(C)C)C(=O)N[C@@H](Cc1c[nH]cn1)C(=O)N[C@@H](CCCNC(=N)N)C(=O)N[C@@H](CC(C)C)C(=O)N[C@@H](CCCCN)C(=O)N[C@@H](CCCNC(=N)N)C(=O)N[C@@H](CCSC)C(=O)N[C@@H](CCCNC(=N)N)C(=O)N[C@@H](CCCCN)C(=O)N[C@@H](CCCNC(=N)N)C(=O)N[C@@H](CC(C)C)C(=O)N[C@H](CCCCN)C(=O)N[C@@H](CCCNC(=N)N)C(=O)N[C@@H](CCCCN)C(N)=O [SR-08] (H-LKLIFLHRLKRMRKRL[dK]RK-NH2; N-terminus assumed)
- Collagen production of fibroblasts (FIG. 2) [1]: had an effect to induce collagen production of the fibroblasts
- Healing effect in burn-ulcer model (unhealed area ratio Day 6 and Day 8, FIGS. 14 and 15) [2]: showed a therapeutic effect also in the burn-ulcer model
- MIC, Salmonella typhimurium (Salmonella typhimurium): 8/4
- MIC, Clostridium ramosum (Clostridium ramosum): 32/16
- MIC, Bacteroides fragilis (Bacteroides fragilis): 64/128
- Ratio of peptide remaining relative to the starting concentration, human serum, 0 min ([3]; 500 μg/mL, 0 min): 100
- remaining at 0.05 h, 500 μg/mL ([3]; human, human serum, 3 min, read-out: Ratio of peptide remaining relative to the starting concentration, human serum, 3 min): 95%
- remaining at 10 min, 500 μg/mL ([3]; human, human serum, 10 min, read-out: Ratio of peptide remaining relative to the starting concentration, human serum, 10 min): 65.8%
- half-life ([3]; human, serum, 500 μg/mL): 16 min
- MIC, MSSA (clinical strain 1) (MSSA (clinical strain 1)): 16/32
- Wound closing tension (FIGS. 7 and 8) (rat cut-wound model): the wound closing tension tended to be increased
